Paper PMC7023430, “4-Aminobenzoic Acid Derivatives: Converting Folate Precursor to Antimicrobial and Cytotoxic Agents” (Biomolecules, 2019)
Converted amounts (≈) assume the structure as drawn. Where two headings read alike, the source gives them in different places.

Tests used:
[1] = test system: Staphylococcus aureus ATCC 29213, CCM 4223; assay: Antibacterial microdilution broth method, S. aureus; assay type: cell-based
Candida tropicalis 156 = assay: Antifungal microdilution broth method, C. tropicalis; assay type: cell-based
How it was run: (§1)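 Panel covers five yeasts and three filamentous fungi tested by a slightly modified EUCAST microdilution protocol. Growth medium is glucose-supplemented (2%) RPMI-1640 with L-glutamine at pH 7.0 (MOPS). Endpoints are judged visually from duplicate runs.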

[2] = test system: M. kansasii 6509/96 (clinical isolate); assay: Antimycobacterial micromethod in Šula's medium, M. kansasii 6509/96; assay type: cell-based; conditions: Mycobacterium kansasii
Candida krusei E28 = assay: Antifungal microdilution broth method, C. krusei; assay type: cell-based; conditions: Pichia kudriavzevii
How it was run: as §1

[3] = test system: ESBL-positive Klebsiella pneumoniae J 14368/08
[4] = test system: Enterococcus faecalis ATCC 29212, CCM 4224; assay: Antibacterial microdilution broth method, E. faecalis; assay type: cell-based; conditions: Enterococcus faecalis
[5] = test system: Mycobacterium kansasii 235/80; assay: Antimycobacterial micromethod in Šula's medium, M. kansasii 235/80; assay type: cell-based
Candida glabrata 20/I = assay: Antifungal microdilution broth method, C. glabrata; assay type: cell-based; conditions: Nakaseomyces glabratus
How it was run: as §1

[6] = test system: Mycobacterium avium 330/88; assay: Antimycobacterial micromethod in Šula's medium, M. avium; assay type: cell-based
[7] = test system: Mycobacterium tuberculosis H37Rv (331/88); assay: Antimycobacterial micromethod in Šula's medium, M. tuberculosis; assay type: cell-based
Trichosporon asahii 1188 = assay: Antifungal microdilution broth method, T. asahii; assay type: cell-based
How it was run: as §1

[8] = test system: Trichophyton interdigitale 445; assay: Antifungal microdilution broth method, T. interdigitale; assay type: cell-based
How it was run: as §1

[9] = test system: Escherichia coli ATCC 25922, CCM 3954; assay: Antibacterial microdilution broth method, E. coli; assay type: cell-based; conditions: Escherichia coli
[10] = test system: methicillin-resistant Staphylococcus aureus ATCC 43300, CCM 4750 (MRSA); assay: Antibacterial microdilution broth method, MRSA; assay type: cell-based; conditions: Staphylococcus aureus
[11] = test system: Candida albicans ATCC 44859; assay: Antifungal microdilution broth method, C. albicans; assay type: cell-based
How it was run: as §1

[12] = test system: Klebsiella pneumoniae D 11750/08; assay: Antibacterial microdilution broth method, K. pneumoniae; conditions: K. pneumoniae D 11750/08; for MIC KP 24 h: 24 h incubation; for MIC KP 48 h: 48 h incubation
[13] = test system: Aspergillus fumigatus 231; assay: Antifungal microdilution broth method, A. fumigatus; assay type: cell-based
How it was run: as §1

[14] = test system: Lichtheimia corymbifera 272; assay: Antifungal microdilution broth method, L. corymbifera; assay type: cell-based
How it was run: as §1

[15] = 24 h incubation, read-out: MIC SA 24 h
[16] = 48 h incubation, read-out: MIC SA 48 h
[17] = 168 h, 7 days incubation at 37 °C, read-out: MIC M. kansasii 6509/96 7 d
[18] = 336 h, 14 days incubation at 37 °C, read-out: MIC M. kansasii 6509/96 14 d
[19] = 504 h, 21 days incubation at 37 °C, read-out: MIC M. kansasii 6509/96 21 d
[20] = 24 h incubation, read-out: MIC EF 24 h
[21] = 48 h incubation, read-out: MIC EF 48 h
[22] = 235/80, 168 h, 7 days incubation at 37 °C, read-out: MIC M. kansasii 235/80 7 d
[23] = 235/80, 336 h, 14 days incubation at 37 °C, read-out: MIC M. kansasii 235/80 14 d
[24] = 235/80, 504 h, 21 days incubation at 37 °C, read-out: MIC M. kansasii 235/80 21 d
[25] = 330/88, 336 h, 14 days incubation at 37 °C, read-out: MIC M. avium 330/88 14 d
[26] = 330/88, 504 h, 21 days incubation at 37 °C, read-out: MIC M. avium 330/88 21 d
[27] = 336 h, 14 days incubation at 37 °C, read-out: MIC Mtb. 331/88 14 d
[28] = 504 h, 21 days incubation at 37 °C, read-out: MIC Mtb. 331/88 21 d
[29] = 24 h incubation, read-out: MIC EC 24 h
[30] = 48 h incubation, read-out: MIC EC 48 h
[31] = 24 h incubation, read-out: MIC MRSA 24 h
[32] = 48 h incubation, read-out: MIC MRSA 48 h
[33] = ATCC44859, 24 h, read-out: MIC CA 24 h
[34] = ATCC44859, 48 h, read-out: MIC CA 48 h

Compound	MIC [1, 15] [µM]	MIC [1, 16] [µM]	MIC (Candida tropicalis 156; 24 h, read-out: MIC CT 24 h) [µM]	MIC (Candida tropicalis 156; 48 h, read-out: MIC CT 48 h) [µM]	MIC [2, 17] [µM]	MIC [2, 18] [µM]	MIC [2, 19] [µM]	MIC (Candida krusei E28; 24 h, read-out: MIC CK 24 h) [µM]	MIC (Candida krusei E28; 48 h, read-out: MIC CK 48 h) [µM]	MIC KP-E 24 h [3] [µM]	MIC KP-E 48 h [3] [µM]	MIC [4, 20] [µM]	MIC [4, 21] [µM]	MIC [5, 22] [µM]	MIC [5, 23] [µM]	MIC [5, 24] [µM]	MIC (Candida glabrata 20/I; 24 h, read-out: MIC CG 24 h) [µM]	MIC (Candida glabrata 20/I; 48 h, read-out: MIC CG 48 h) [µM]	MIC [6, 25] [µM]	MIC [6, 26] [µM]	further results
O=C(O)c1ccc(N=Cc2cc(Cl)cc(Br)c2O)cc1 [1o, 4-[(3-Bromo-5-chloro-2-hydroxybenzylidene)amino]benzoic acid]	15.6 (≈ 5.54 µg/mL)	15.6 (≈ 5.54 µg/mL)	62.5 (≈ 22.2 µg/mL)	62.5 (≈ 22.2 µg/mL)	500 (≈ 177 µg/mL)	500 (≈ 177 µg/mL)	500 (≈ 177 µg/mL)	62.5 (≈ 22.2 µg/mL)	62.5 (≈ 22.2 µg/mL)	500 (≈ 177 µg/mL)	500 (≈ 177 µg/mL)	62.5 (≈ 22.2 µg/mL)	62.5 (≈ 22.2 µg/mL)	250 (≈ 88.6 µg/mL)	500 (≈ 177 µg/mL)	500 (≈ 177 µg/mL)	15.6 (≈ 5.54 µg/mL)	15.6 (≈ 5.54 µg/mL)	500 (≈ 177 µg/mL)	500 (≈ 177 µg/mL)	MIC [7, 27]: 250 µM (≈ 88.6 µg/mL); MIC [7, 28]: 500 µM (≈ 177 µg/mL); MIC (Trichosporon asahii 1188; 24 h, read-out: MIC TA 24 h): 31.2 µM (≈ 11.1 µg/mL); MIC (Trichosporon asahii 1188; 48 h, read-out: MIC TA 48 h): 31.2 µM (≈ 11.1 µg/mL); MIC ([8]; 72 h, read-out: MIC TI 72 h): 62.5 µM (≈ 22.2 µg/mL); MIC ([8]; 120 h, read-out: MIC TI 120 h): 62.5 µM (≈ 22.2 µg/mL); MIC [9, 29]: 500 µM (≈ 177 µg/mL); MIC [9, 30]: 500 µM (≈ 177 µg/mL); MIC [10, 31]: 31.2 µM (≈ 11.1 µg/mL); MIC [10, 32]: 31.2 µM (≈ 11.1 µg/mL); MIC [11, 33]: 31.2 µM (≈ 11.1 µg/mL); MIC [11, 34]: 31.2 µM (≈ 11.1 µg/mL); MIC KP 24 h [12]: 500 µM (≈ 177 µg/mL); MIC KP 48 h [12]: 500 µM (≈ 177 µg/mL); MIC ([13]; 24 h, read-out: MIC AF 24 h): 250 µM (≈ 88.6 µg/mL); MIC ([13]; 48 h, read-out: MIC AF 48 h): 250 µM (≈ 88.6 µg/mL); MIC ([14]; 24 h, read-out: MIC LC 24 h): 500 µM (≈ 177 µg/mL); MIC ([14]; 48 h, read-out: MIC LC 48 h): 500 µM (≈ 177 µg/mL)
O=C(O)c1ccc(N=Cc2cc(Cl)cc(I)c2O)cc1 [1p, 4-[(5-Chloro-2-hydroxy-3-iodobenzylidene)amino]benzoic acid]	15.6 (≈ 6.27 µg/mL)	15.6 (≈ 6.27 µg/mL)	31.2 (≈ 12.5 µg/mL)	31.2 (≈ 12.5 µg/mL)	250 (≈ 100 µg/mL)	250 (≈ 100 µg/mL)	500 (≈ 201 µg/mL)	15.6 (≈ 6.27 µg/mL)	15.6 (≈ 6.27 µg/mL)	125 (≈ 50.2 µg/mL)	125 (≈ 50.2 µg/mL)	62.5 (≈ 25.1 µg/mL)	62.5 (≈ 25.1 µg/mL)	250 (≈ 100 µg/mL)	500 (≈ 201 µg/mL)	500 (≈ 201 µg/mL)	7.81 (≈ 3.14 µg/mL)	7.81 (≈ 3.14 µg/mL)	500 (≈ 201 µg/mL)	1000 (≈ 402 µg/mL)	MIC [7, 27]: 250 µM (≈ 100 µg/mL); MIC [7, 28]: 250 µM (≈ 100 µg/mL); MIC (Trichosporon asahii 1188; 24 h, read-out: MIC TA 24 h): 7.81 µM (≈ 3.14 µg/mL); MIC (Trichosporon asahii 1188; 48 h, read-out: MIC TA 48 h): 7.81 µM (≈ 3.14 µg/mL); MIC ([8]; 72 h, read-out: MIC TI 72 h): 7.81 µM (≈ 3.14 µg/mL); MIC ([8]; 120 h, read-out: MIC TI 120 h): 7.81 µM (≈ 3.14 µg/mL); MIC [9, 29]: 62.5 µM (≈ 25.1 µg/mL); MIC [9, 30]: 62.5 µM (≈ 25.1 µg/mL); MIC [10, 31]: 15.6 µM (≈ 6.27 µg/mL); MIC [10, 32]: 15.6 µM (≈ 6.27 µg/mL); MIC [11, 33]: 7.81 µM (≈ 3.14 µg/mL); MIC [11, 34]: 7.81 µM (≈ 3.14 µg/mL); MIC KP 24 h [12]: 125 µM (≈ 50.2 µg/mL); MIC KP 48 h [12]: 125 µM (≈ 50.2 µg/mL); MIC ([13]; 24 h, read-out: MIC AF 24 h): 125 µM (≈ 50.2 µg/mL); MIC ([13]; 48 h, read-out: MIC AF 48 h): 125 µM (≈ 50.2 µg/mL); MIC ([14]; 24 h, read-out: MIC LC 24 h): 250 µM (≈ 100 µg/mL); MIC ([14]; 48 h, read-out: MIC LC 48 h): 250 µM (≈ 100 µg/mL)
